We go through eleven molecules from patent US20100152275A1, “Drug or Supplement Combination with Conjugated Linoleic Acid for Fat Loss in Mammals” (Kaloness, Inc., priority 2008, published 2010).

Data set [1] relates to 3T3-L1 adipocytes. Briefly: Triglyceride levels (delipidation) in 3T3-L1 adipocytes. The conditions noted are these: for TG levels: differentiated 3T3-L1 adipocytes, alone or combined with t10c12 CLA; for reduced triglyceride levels by, relative to the linoleic acid control: Example 15, CLA 50 uM. It is filed as cell-based, Mouse. The method, then:
Two well known AMPK activators with very different chemical structures are metformin and AICAR. Metformin is from the class of biguanides while AICAR is a ribonucleoside analog that is phosphorylated in the cell to form ZMP, an AMP mimetic. […] A lower 50 μM level of t10c12 CLA was used in the experiment to better measure any effects of the combinations.
We recognize the complex medical effects and dangers of ATRA, retinoids, or rexinoids, has limited their therapeutic use in humans.
We tested the role of PPARβ/δ with the use of GW0742, a PPARβ/δ agonist.
Activating ligands include hydroxysterols such as 24(S)-Hydroxycholesterol or 24(S),25-epoxycholesterol.
We treated 3T3-L1 adipocytes with control or CLA fatty acids, with or without a statin drug.

Data set [2] relates to MCP-1 mRNA. The data set is described as follows: MCP-1 mRNA by real time PCR in 3T3-L1 adipocytes. Type of data set: cell-based, Mouse. Conditions: 12 hrs. Here is the method:
CLA has been reported to cause inflammation which is considered a non-healthy condition. […] Metformin or AICAR was used in combination with t10c12 CLA in the media containing the adipocytes for 12 hrs. RNA was isolated and the inflammatory response, as measured by MCP-1 (an inflammatory cytokine) mRNA levels, was determined by real time PCR of the reverse transcribed RNA.

Data set [3] relates to liver tissues. The data set is described as follows: Microarray analysis of liver tissues of mice treated with t10c12 CLA. It is filed as in vivo. From the text:
(§1) We have microarray analyses of 3T3-L1 fibroblasts prior to differentiation and from liver tissues in mice treated with t10c12 CLA that support the hypothesis that t10c12 CLA is selective in the types of cells responding. The ISR is a cell response that most cells are capable of inducing and is a key part of the response to t10c12 CLA [5, 19].

Data set [4] relates to 3T3-L1 fibroblasts. Briefly: Integrated stress response (ISR) in 3T3-L1 fibroblasts, microarray. Type of data set: cell-based, Mouse. Conditions: 3T3-L1 fibroblasts prior to differentiation.
Text: as §1

The test system of data set [5] is AMPK. The data set is described as follows: AMPK phosphorylation in 3T3-L1 adipocytes, western blot. It is filed as cell-based, Mouse. Conditions: for Phospho-AMPK Amount: 3T3-L1 adipocytes, LA = 1.
Procedure: (§3) The level of phosphorylated AMPK and acetyl CoA carboxylase (ACC), one of AMPK's known in vivo substrates, was measured at various times after treating 3T3-L1 adipocytes with either 100 uM linoleic acid or trans-10, cis-12 CLA (t10c12 CLA). […] The total amounts of AMPK and ACC were also determined with antibodies that recognize the respective proteins regardless of phosphorylation status.
(§4) The phosphorylation levels of AMPK and ACC were then determined after treating 3T3-L1 adipocytes with either metformin, AICAR, or t10c12 CLA alone or in combination.
The nature of data set [6]: 14 d feeding trial of t10c12 CLA and metformin in MC mice. It is filed as in vivo. Conditions: mean ± SEM. The method, then: (§2) FIG. 1. […] Forty-two MC and 42 mL mice were fed diets containing soy oil or soy oil with 0.25% t10c12 CLA and drinking water containing either none, 0.33 mg/ml, or 3.33 mg/ml metformin (Met) for 14 days (n=6 mice per treatment). A positive control diet contained the standard amount of 0.5% t10c12 CLA without any metformin. Body weights were recorded and retroperitoneal (RP) and epididymal fat pads from all the mice were isolated and weighed.

The nature of data set [7]: 14 d feeding trial of t10c12 CLA and metformin in ML mice. Conditions: for fat pad weights relative to control untreated mice: 0.25% CLA, either dose of metformin; for change in body weight (BW) / final weight of the epididymal (EPI) / final weight of the retroperitoneal (RP): mean ± SEM. It is filed as in vivo. The method, then:
as §2

The test system of data set [8] is acetyl CoA carboxylase (ACC). Conditions: for Phospho-ACC amount: 3T3-L1 adipocytes, LA = 1.
Procedure: as §3, §4
For data set [9], the system named is WAT of mice. The data set is described as follows: Microarray analysis of WAT of mice fed t10c12 CLA. Type of data set: in vivo. The source says: Recent microarray analyses of the WAT of mice fed t10c12 CLA by our laboratory and others found three major trends. […] This initial inflammatory response is transient: the expression levels of many of these genes returns to normal levels following the first week of treatment, and the remaining genes are expressed at lower levels than the initial response. […] In particular, carnitine palmitoyltransferase I (CPT1), uncoupling protein 1 (UCP1), and uncoupling protein 2 (UCP2) show increases. The response in UCP1 and UCP2 genes is quite strong, as the levels of the induced mRNAs are in the 95th and 90th percentiles of the most abundant mRNAs in the adipocyte, respectively. UCP1 is usually exclusively expressed in brown adipose tissue, so this is a remarkable change in expression pattern with likely physiological effects. There is not a consensus that increased metabolic heat output occurs in t10c12 CLA treatments, but this increased metabolism has been observed in some studies.

Data set [10] deals with 3T3-L1 adipocytes. The data set is described as follows: Microarray gene expression changes in 3T3-L1 adipocytes. Type of data set: cell-based, Mouse. Conditions: compared with t10c12 CLA, data not shown.
The test system of data set [11] is adipocytes. Briefly: Inflammatory response to phenformin in adipocytes. It is filed as cell-based. The conditions noted are these: compared with metformin.
For data set [12] the following is noted: reference [18]; cited from earlier work.
Setting [13] is: 100 uM, from 30 min, persisted 16 hr, vs linoleic acid.

Structures are written as SMILES. Read-outs that look alike come from different tables or passages of the source.

Consider `C[C@H](CC[C@@H]1OC1(C)C)[C@H]1CC[C@H]2[C@@H]3CC=C4C[C@@H](O)CC[C@]4(C)[C@H]3CC[C@]12C` [24(S),25-epoxycholesterol], for which the TG levels result in data set [1] was “did not reduce TG levels”.

As for `CC(C)[C@@H](O)CC[C@@H](C)[C@H]1CC[C@H]2[C@@H]3CC=C4C[C@@H](O)CC[C@]4(C)[C@H]3CC[C@]12C` [24(S)-Hydroxycholesterol], the TG levels entry in [1] is reported as “did not reduce TG levels”.

Regarding `NC(=O)c1ncn([C@@H]2O[C@H](CO)[C@@H](O)[C@H]2O)c1N` [AICAR, aminoimidazole carboxamide ribonucleotide, reference compound], in data set [2], the “MCP-1 induction relative to the LA control” value is “neither metformin nor AICAR alone produced a significant induction”.

With `CC1=C(/C=C/C(C)=C/C=C/C(C)=C/C(=O)O)C(C)(C)CCC1` [ATRA, All trans retinoic acid], the TG levels entry in [1] is “increased amounts of TG”.

For `CCCCC/C=C\C=C\CCCCCCCCC(=O)O` [CLA, trans-10, cis-12 CLA], the ISR in liver result in data set [3] (compared with adipose tissue) is given as “weak ISR”. The “delipidation or inflammatory response in liver” value in [3] (mice treated with t10c12 CLA) was “lacked a significant delipidation or inflammatory response”. Also, the “reduction in triglyceride levels” value in [1] (Example 2, CLA alone, vs LA control) was 50%. Besides, the “reduced triglyceride levels by, relative to the linoleic acid control” value in data set [1] is given as 25%. The “MCP-1 induction relative to the LA control” value in data set [2] is recorded as 23 fold. The “MCP-1 mRNA levels” value in data set [2] (LA = 1) is given as 23. In data set [4], the ISR response entry is on record as “do not show this response”. In addition, the “total amount of AMPK” value in data set [5] (100 uM, 16 hr experiment) was “remained constant”. In addition, the “level of phosphorylated AMPK” value in [5] (setting [13]) is listed as “increased levels”. Further, in data set [5] (2 hr), the “Phospho-AMPK Amount” value was 6.0. Moreover, the “Phospho-AMPK Amount” value in [5] (8 hr) is recorded as 1.7. In addition, in data set [6] (Met0, 14 d), the change in body weight (BW) was found to be 1.42 ± 0.46 g, the final weight of the epididymal (EPI) amounted to 0.31 ± 0.07 g and the final weight of the retroperitoneal (RP) came out at 0.1 ± 0.01 g. The “fat pad weights relative to control untreated mice” value in data set [7] was “no significant change”. Also, the change in body weight (BW) in data set [7] (Met0 (no metformin), 14 d) is 1.89 ± 0.95 g. Further, in data set [7] (Met0, 14 d), the final weight of the epididymal (EPI) worked out at 0.89 ± 0.17 g and the final weight of the retroperitoneal (RP) is 0.27 ± 0.08 g. Moreover, the “total amount of ACC” value in [8] (100 uM, 16 hr experiment) is given as “remained constant”. Moreover, the “level of phosphorylated ACC” value in data set [8] (setting [13]) is “increased levels”. The molecule also yielded a Phospho-ACC amount in data set [8] (2 hr) of 4.1. Besides, in [8] (8 hr), the Phospho-ACC amount turned out to be 3.3. In addition, in [9] (WAT of mice fed t10c12 CLA), the “UCP1 induced mRNA level, percentile of the most abundant mRNAs in the adipocyte” value is 95 percentile; the “UCP2 induced mRNA level, percentile of the most abundant mRNAs in the adipocyte” value is listed as 90 percentile; the “expression of key adipocyte lipid-related genes” value is listed as “reduced expression”; the “mRNA levels of key fatty acid oxidation genes (CPT1, UCP1, UCP2)” value is “increased mRNA levels”. Besides, in data set [9] (first several days of dietary t10c12 CLA, transient), the “inflammatory response (Cox2, cytokines)” value was “induce an inflammatory response”.

With `Cc1cc(SCc2sc(-c3ccc(C(F)(F)F)c(F)c3)nc2C)ccc1OCC(=O)O` [GW0742], the TG levels entry in [1] is reported as “little effect on TG levels”.

Turning to `CN(C)C(=N)N=C(N)N` [Metformin], the “induction of inflammatory genes (CD14, Clcf1, Cox2, Csf1, MCP-1, Osmr, PAI, SOCS3)” value in data set [10] is listed as “lower levels of induction”. Further, the “MCP-1 induction relative to the LA control” value in data set [2] is “neither metformin nor AICAR alone produced a significant induction”. The change in body weight (BW) in data set [6] (Met2 (2 mmol/L), 14 d) was determined as 1.96 ± 0.9 g; in [6] (Met20 (20 mmol/L), 14 d), 2.82 ± 0.96 g; in data set [7] (Met2 (metformin 2 mmol/L drinking water), 14 d), 2.89 ± 1 g; in data set [7] (Met20 (metformin 20 mmol/L drinking water), 14 d), 2.54 ± 0.51 g. In addition, the final weight of the epididymal (EPI) in data set [6] (Met2 (2 mmol/L), 14 d) was found to be 0.59 ± 0.07 g; in [6] (Met20 (20 mmol/L), 14 d), 0.48 ± 0.09 g; in [7] (Met2 (2 mmol/L), 14 d) it was 1.06 ± 0.13 g; in data set [7] (Met20 (20 mmol/L), 14 d), 1.08 ± 0.12 g. In addition, the final weight of the retroperitoneal (RP) in data set [6] (Met2 (2 mmol/L), 14 d) is 0.23 ± 0.04 g; in [6] (Met20 (20 mmol/L), 14 d), 0.23 ± 0.06 g; in data set [7] (Met2 (2 mmol/L), 14 d), 0.37 ± 0.1 g; in data set [7] (Met20 (20 mmol/L), 14 d), 0.33 ± 0.06 g. Besides, in data set [7], the “fat pad weights relative to control untreated mice” value is recorded as “increased fat pad weights”.

In the case of `[H]/N=C(/N)N/C(=N/[H])NCCc1ccccc1` [Phenformin], the inflammatory response result in [11] is listed as “stronger than that observed with metformin”. Besides, in [12], the lactic acidosis entry was “can cause toxic lactic acidosis”. In addition, the delipidation entry in [1] (Example 9) was “sufficient for the type of strong delipidation observed with t10c12 CLA treatments”. Further, the p-AMPK levels result in data set [5] (compared with metformin) is on record as “higher p-AMPK levels”.

In the case of `c1cc(-c2cnn3cc(-c4ccc(OCCN5CCCCC5)cc4)cnc23)ccn1` [compound C, reference compound], in data set [5] (Example 2, western blot), the “phosphorylation of AMPK” value is on record as “inhibited”. Moreover, in data set [8] (Example 2, western blot), the “phosphorylation of Acetyl-Coenzyme A Carboxylase (ACC)” value is listed as “inhibited”.

For `CC[C@H](C)C(=O)O[C@H]1CCC=C2C=C[C@H](C)[C@H](CC[C@@H]3C[C@@H](O)CC(=O)O3)[C@H]21` [mevastatin, Mevastatin], the “reduced triglyceride levels by, relative to the linoleic acid control” value in data set [1] came to 10%.

Consider `CC1=C(/C=C/C(C)=C/C=C/C(C)=C/CO)C(C)(C)CCC1` [vitamin A, retinol], for which, in data set [1], the TG levels entry is reported as “little impact”.
